According to patent publication US20040072848A1, “Methods of treating irritable bowel syndrome and functional dyspepsia” (priority 2003, published 2004):

System: Zymosan-sensitized rats
Assay: Rodent model of zymosan-induced hyperalgesia: visceromotor response to colorectal distention
Format: in vivo, Sprague-Dawley rats
Conditions: two doses (time 0 and 16 h), intracolonic zymosan, CRD 80 mm Hg, 20 s, 4 h after zymosan, expressed as percentage of control, baseline = 100%
Method: FIG. 1 is a graphical representation of the results of a study conducted in Zymosan-sensitized rats comparing the effect of (E)-4-(1,3-bis(cyclohexylmethyl)-1,2,3,6-tetrahydro-2,6-dioxo-9H-purin-8-yl)cinnamic acid nonaethylene glycol methyl ether ester ([…] and 25 mg/kg) versus vehicle. Results are reported as response to colorectal distention (CRD) (as a percent of control) with increasing dosage of 0, 12.5, and 25 mg/kg of compound (sensitized --▪--) as compared to baseline (--♦--).
Protocol for Evaluation of (E)-4-(1,3-bis(cyclohexylmethyl)-1,2,3,6-tetrahydro-2,6-dioxo-9H-purin-8-yl)cinnamic acid nonaethylene glycol methyl ether ester in a Rodent Model of Zymosan-Induced Hyperalgesia […]
The descending colon and rectum were distended by pressure-controlled inflation of a 7-8-cm-long flexible latex balloon tied around a flexible tube. […] Intracolonic pressure was continuously monitored by the aid of a pressure control device. Response was, quantified as the visceromotor response (VMR), a contraction of the abdominal and hindlimb musculature. EMG activity produced by contraction of the external oblique musculature was quantified using Spike2 software (Cambridge Electronic Designs). Each distension trial lasted 60 seconds, and EMG activity was quantitated in 1-second bins for 20 seconds before distension (baseline), during distention, and 20 seconds after distention. […]

COCCOCCOCCOCCOCCOCCOCCOCCOCCOC(=O)/C=C/c1ccc(-c2nc3c(=O)n(CC4CCCCC4)c(=O)n(CC4CCCCC4)c3[nH]2)cc1 [(E)-4-(1,3-bis(cyclohexylmethyl)-1,2,3,6-tetrahydro-2,6-dioxo-9H-purin-8-yl)cinnamic acid nonaethylene glycol methyl ether ester]
response to colorectal distention (CRD), visceromotor response (12.5 mg/kg oral gavage): decreased the response to colorectal distention down to baseline levels
response to colorectal distention (CRD), visceromotor response (25 mg/kg oral gavage): decreased the response to colorectal distention down to baseline levels
